Results as given in PubChem BioAssay AID248 (DTP/NCI, 2004).
Several values for one entry are separate records, joined by “and”; a condition that tells them apart may be missing. Identical values can stand only once. Toxic doses and inconclusive results are not listed.

System: L1210 leukemia ip in BDF1 mice, survival T/C
Assay: NCI In Vivo Anticancer Drug Screen. Data for tumor model L1210 Leukemia (intraperitoneal) in B6D2F1 (BDF1) mice
Details: endpoint: mean survival time, higher = longer survival
Method in brief: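 Read-out is survival time, reported as the treated-group measurement over the vehicle-control measurement.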

[1] = dose: 100.0 mg/kg/injection, schedule: Q01DX001 (ip), vehicle: saline
[2] = dose: 200.0 mg/kg/injection, schedule: Q01DX001 (ip), vehicle: saline
[3] = dose: 400.0 mg/kg/injection, schedule: Q01DX001 (ip), vehicle: saline
[4] = dose: 400.0 mg/kg/injection, schedule: Q01DX001 (ip), vehicle: other

## CC1C2CC3OC(=O)C1(C)C3C2 (stereo not given)
[1]
  T/C: 92 % of control
[2]
  T/C: 98 % of control
[3]
  T/C: 96 % of control

## O=NN(CCCl)C(=O)NCc1ccc(-c2ccc(CNC(=O)N(CCCl)N=O)cc2)cc1
dose: 177.0 mg/kg/injection, schedule: Q01DX001 (ip), vehicle: other
  T/C: 156 % of control and 188 % of control
dose: 266.0 mg/kg/injection, schedule: Q01DX001 (ip), vehicle: other
  T/C: 180 % of control
[4]
  T/C: 194 % of control
dose: 400.0 mg/kg/injection, schedule: Q01DX009 (ip), vehicle: carboxymethylcellulose (CMC)
  T/C: 159 % of control and 274 % of control
dose: 600.0 mg/kg/injection, schedule: Q01DX001 (ip), vehicle: other
  T/C: 264 % of control
dose: 600.0 mg/kg/injection, schedule: Q01DX009 (ip), vehicle: carboxymethylcellulose (CMC)
  T/C: 261 % of control

## CCOC(=S)c1ccc(NS(=O)(=O)c2ccc(C)cc2)cc1
dose: 100.0 mg/kg/injection, schedule: Q01DX001 (ip), vehicle: saline with Tween-80
  T/C: 100 % of control
dose: 200.0 mg/kg/injection, schedule: Q01DX001 (ip), vehicle: saline with Tween-80
  T/C: 107 % of control
dose: 400.0 mg/kg/injection, schedule: Q01DX001 (ip), vehicle: saline with Tween-80
  T/C: 102 % of control

## Cc1cc(N=Nc2ccc([N+](=O)[O-])cc2)ccc1N(C)C
dose: 100.0 mg/kg/injection, schedule: Q01DX001 (ip), vehicle: other
  T/C: 97 % of control
dose: 200.0 mg/kg/injection, schedule: Q01DX001 (ip), vehicle: other
  T/C: 101 % of control
[4]
  T/C: 89 % of control

## CC12CCC3=C(CCc4cc(O)ccc43)C1CCC2=O (stereo not given)
dose: 75.0 mg/kg/injection, schedule: Q01DX001 (ip), vehicle: steriod suspending solution
  T/C: 91 % of control
dose: 150.0 mg/kg/injection, schedule: Q01DX001 (ip), vehicle: steriod suspending solution
  T/C: 96 % of control
dose: 300.0 mg/kg/injection, schedule: Q01DX001 (ip), vehicle: steriod suspending solution
  T/C: 101 % of control

## CN[C@H]1CCc2cc(OC)c(OC)c(OC)c2-c2ccc(OC)c(=O)cc21
dose: 0.14 mg/kg/injection, schedule: Q01DX009 (ip), vehicle: saline
  T/C: 95 % of control
dose: 0.23 mg/kg/injection, schedule: Q01DX009 (ip), vehicle: saline
  T/C: 104 % of control
dose: 0.39 mg/kg/injection, schedule: Q01DX009 (ip), vehicle: saline
  T/C: 112 % of control
dose: 0.39 mg/kg/injection, schedule: Q04DX003 (ip), vehicle: saline
  T/C: 101 % of control
dose: 0.65 mg/kg/injection, schedule: Q01DX009 (ip), vehicle: saline
  T/C: 110 % of control
dose: 0.65 mg/kg/injection, schedule: Q04DX003 (ip), vehicle: saline
  T/C: 102 % of control
dose: 1.0 mg/kg/injection, schedule: Q03HX008 (ip), vehicle: saline
  T/C: 118 % of control
dose: 1.08 mg/kg/injection, schedule: Q01DX009 (ip), vehicle: saline
  T/C: 110 % of control
dose: 1.08 mg/kg/injection, schedule: Q04DX003 (ip), vehicle: saline
  T/C: 101 % of control
dose: 1.8 mg/kg/injection, schedule: Q04DX003 (ip), vehicle: saline
  T/C: 101 % of control
dose: 2.0 mg/kg/injection, schedule: Q01DX004 (ip), vehicle: saline
  T/C: 106 % of control
dose: 2.0 mg/kg/injection, schedule: Q01DX004 (oral), vehicle: saline
  T/C: 103 % of control
dose: 2.0 mg/kg/injection, schedule: Q03HX008 (ip), vehicle: saline
  T/C: 120 % of control
dose: 3.0 mg/kg/injection, schedule: Q01DX001 (ip), vehicle: saline
  T/C: 100 % of control
dose: 3.0 mg/kg/injection, schedule: Q04DX003 (ip), vehicle: saline
  T/C: 95 % of control
dose: 4.0 mg/kg/injection, schedule: Q01DX001 (oral), vehicle: saline
  T/C: 103 % of control
dose: 4.0 mg/kg/injection, schedule: Q01DX004 (ip), vehicle: saline
  T/C: 106 % of control
dose: 4.0 mg/kg/injection, schedule: Q01DX004 (oral), vehicle: saline
  T/C: 111 % of control
dose: 5.0 mg/kg/injection, schedule: Q01DX001 (ip), vehicle: saline
  T/C: 103 % of control
dose: 5.3 mg/kg/injection, schedule: Q01DX001 (ip), vehicle: saline
  T/C: 102 % of control
dose: 8.0 mg/kg/injection, schedule: Q01DX001 (ip), vehicle: saline
  T/C: 101 % of control and 102 % of control
dose: 8.0 mg/kg/injection, schedule: Q01DX001 (oral), vehicle: saline
  T/C: 108 % of control
dose: 8.0 mg/kg/injection, schedule: Q01DX004 (ip), vehicle: saline
  T/C: 113 % of control
dose: 8.0 mg/kg/injection, schedule: Q01DX004 (oral), vehicle: saline
  T/C: 111 % of control
dose: 8.0 mg/kg/injection, schedule: Q03HX008 (ip), vehicle: saline
  T/C: 156 % of control
dose: 8.0 mg/kg/injection, schedule: Q## X002 (ip), vehicle: saline
  T/C: 119 % of control
dose: 8.0 mg/kg/injection, schedule: Q## X003 (ip), vehicle: saline
  T/C: 100 % of control
dose: 8.0 mg/kg/injection, schedule: Q## X008 (ip), vehicle: saline
  T/C: 107 % of control
dose: 8.0 mg/kg/injection, schedule: Q## X016 (ip), vehicle: saline
  T/C: 110 % of control
dose: 9.0 mg/kg/injection, schedule: Q01DX001 (ip), vehicle: saline
  T/C: 104 % of control
dose: 12.0 mg/kg/injection, schedule: Q01DX001 (ip), vehicle: saline
  T/C: 104 % of control
dose: 16.0 mg/kg/injection, schedule: Q01DX001 (ip), vehicle: saline
  T/C: 105 % of control
dose: 16.0 mg/kg/injection, schedule: Q01DX001 (oral), vehicle: saline
  T/C: 109 % of control
dose: 16.0 mg/kg/injection, schedule: Q01DX004 (ip), vehicle: saline
  T/C: 118 % of control
dose: 16.0 mg/kg/injection, schedule: Q## X002 (ip), vehicle: saline
  T/C: 98 % of control
dose: 16.0 mg/kg/injection, schedule: Q## X003 (ip), vehicle: saline
  T/C: 112 % of control
dose: 16.0 mg/kg/injection, schedule: Q## X016 (ip), vehicle: saline
  T/C: 112 % of control
dose: 16.0 mg/kg/injection, schedule: Q## X024 (ip), vehicle: saline
  T/C: 100 % of control
dose: 18.0 mg/kg/injection, schedule: Q01DX001 (ip), vehicle: saline
  T/C: 114 % of control
dose: 32.0 mg/kg/injection, schedule: Q01DX001 (ip), vehicle: saline
  T/C: 101 % of control and 103 % of control
dose: 32.0 mg/kg/injection, schedule: Q01DX001 (oral), vehicle: saline
  T/C: 119 % of control and 124 % of control
dose: 32.0 mg/kg/injection, schedule: Q01DX009 (ip), vehicle: saline
  T/C: 102 % of control
dose: 32.0 mg/kg/injection, schedule: Q## X002 (ip), vehicle: saline
  T/C: 117 % of control
dose: 32.0 mg/kg/injection, schedule: Q## X003 (ip), vehicle: saline
  T/C: 104 % of control
dose: 32.0 mg/kg/injection, schedule: Q## X016 (ip), vehicle: saline
  T/C: 110 % of control
dose: 64.0 mg/kg/injection, schedule: Q01DX001 (ip), vehicle: saline
  T/C: 114 % of control and 116 % of control
dose: 64.0 mg/kg/injection, schedule: Q## X016 (ip), vehicle: saline
  T/C: 89 % of control
dose: 128.0 mg/kg/injection, schedule: Q01DX001 (ip), vehicle: saline
  T/C: 124 % of control
dose: 256.0 mg/kg/injection, schedule: Q01DX001 (ip), vehicle: saline
  T/C: 123 % of control

## O=c1[nH]cnc2nc(SCc3cccc([N+](=O)[O-])c3)[nH]c12
dose: 150.0 mg/kg/injection, schedule: Q01DX001 (ip), vehicle: other
  T/C: 89 % of control
dose: 300.0 mg/kg/injection, schedule: Q01DX001 (ip), vehicle: other
  T/C: 87 % of control

## CC(O)C(O)C(O)C(O)C(c1ccc(Cl)cc1)c1ccc(Cl)cc1 (stereo not given)
dose: 50.0 mg/kg/injection, schedule: Q01DX001 (ip), vehicle: saline
  T/C: 104 % of control
[1]
  T/C: 98 % of control

## CCCN(CC#N)CCC
dose: 3.0 mg/kg/injection, schedule: Q01DX009 (ip), vehicle: Klucel (hydroxypropylcellulose) (HPC)
  T/C: 97 % of control
dose: 6.0 mg/kg/injection, schedule: Q01DX009 (ip), vehicle: Klucel (hydroxypropylcellulose) (HPC)
  T/C: 97 % of control
dose: 6.0 mg/kg/injection, schedule: Q04DX003 (ip), vehicle: Klucel (hydroxypropylcellulose) (HPC)
  T/C: 98 % of control
dose: 12.0 mg/kg/injection, schedule: Q01DX009 (ip), vehicle: Klucel (hydroxypropylcellulose) (HPC)
  T/C: 97 % of control
dose: 12.0 mg/kg/injection, schedule: Q04DX003 (ip), vehicle: Klucel (hydroxypropylcellulose) (HPC)
  T/C: 107 % of control
dose: 25.0 mg/kg/injection, schedule: Q04DX003 (ip), vehicle: Klucel (hydroxypropylcellulose) (HPC)
  T/C: 96 % of control

## Nc1nc(N)c(-c2ccc(Cl)c(Cl)c2)c(C=O)n1
[1]
  T/C: 107 % of control
[2]
  T/C: 114 % of control
[3]
  T/C: 111 % of control
